Here are results for one molecule from article PMC3781034, “A Small-Animal Pharmacokinetic/Pharmacodynamic PET Study of Central Serotonin 1A Receptor Occupancy by a Potential Therapeutic Agent for Overactive Bladder” (PLoS ONE, 2013).

The test system of data set [1] is 5-HT1A receptors. The experiment in a line: Effect compartment model simulation of 5-HT1A RO in female rats. Also on record: species or system female SD rats. To be noted: for simulated 5-HT1A RO: DRN. An excerpt: The effect compartment model is illustrated in Figure 2. The mean plasma concentration profile of E2110 in each of four rats was fitted by two-compartment model with first order absorption and elimination. A sigmoid Emax model (Equation 4) based on the concentration in the effect compartment was fitted to the PD (RO) data. PK and PD models were linked using an effect compartment model described by the following equation: […]
where Cp and Ce are concentrations of E2110 in the plasma and effect compartments, respectively, and ke0 represents the equilibration rate constant for the effect compartment. PK and PD parameters were estimated by using […] (Version 2.01, MicroMath Research, UT, USA).

The test system of the next data set is micturition interval. The experiment in a line: Superior colliculus lesion (SCL) model, cystometry. Format: in vivo, female SD rats. The procedure: For lesioning of the brain to stimulate the micturition reflex, anesthesia was induced in female SD rats with 4% halothane and an N2O/O2 (2:1) gas mixture, it was maintained with 2% halothane, and each animal was mounted onto a stereotaxic apparatus. […] Catheter implantations and cystometric investigations were performed with the same methodologies as in the 5-HT1A receptor agonist-induced model. E2110 (0.1, 0.3 or 1 mg/kg) or vehicle was administered to four groups of eight conscious rats orally. The three micturition intervals were obtained and drug-induced changes in the micturition intervals were evaluated. In this assay, the post-administration micturition interval was defined as the average of the micturition intervals over an observation period between 0.5 and 1 hour after administration.
Data are expressed as mean ± standard error of mean (S.E.M). In the pharmacological study, the statistical significance of differences between the vehicle- and E2110-treated groups was tested using one-way analysis of variance (ANOVA) followed by Dunnett’s multiple comparison test. A probability (p) value of <0.05 (two-sided) was considered statistically significant. All statistical analyses were performed using the SAS software package version 8.1 or 8.2 (SAS Institute Japan Ltd., Tokyo, Japan).

Data set [2] is described as follows: Protein binding of E2110 in rat plasma (equilibrium dialysis). Format: in vitro ADME. On the procedure:
The in vitro unbound fraction of […] in male SD rat plasma was quantified by equilibrium dialysis. One mL of the […] spiked sample (100, 1000 and 10000 ng/mL) and phosphate buffered saline (PBS) were applied to one and the other chambers of a dialysis cell, respectively. The cartridge was incubated in a water bath for 24 hr at 37°C. After incubation, aliquots were sampled from both chambers and submitted to determination of the concentration of […] in each matrix by liquid chromatography-tandem mass spectrometry. Unbound fractions for each compound were calculated as the ratio of […] concentration from the PBS side to that from the plasma side of the dialysis apparatus. Concentrations of […] were determined in plasma or PBS by liquid chromatography - tandem mass spectrometry. Samples (5 μL) were injected into an L-column ODS (35 × 2.1 mm; 5 μM, Chemical Evaluation and Research Institute, Tokyo, Japan) with a flow rate of 0.6 mL/min. We used 0.1% formic acid in water and acetonitrile as mobile phase A and B, respectively. […] […] was monitored using mass transitions of 490.4/459.2. Tamsulosin was used as an internal standard, and was monitored using a mass transition of 409.3/200.0. The lower limit of quantification of […] in plasma was 0.5 ng/mL.

A short description of the next data set: PK study in rats (oral). To be noted: Sprague-Dawley, rat, plasma, 1 mg/kg oral; for AUC(0-t): read-out: AUC0-8hr. Format: in vivo. The procedure:
E2110 was administered orally to male and female SD rats, (4 animals/sex) at a dose of 1 mg/kg. Blood samples were collected from the jugular veins by heparinized syringes at 0.25, 0.5, 1, 2, 4, 6, and 8 hours after dosing.
Concentrations of E2110 were determined in plasma or PBS by liquid chromatography - tandem mass spectrometry. Samples (5 µL) were injected into an L-column ODS (35 × 2.1 mm; 5 µM, Chemical Evaluation and Research Institute, Tokyo, Japan) with a flow rate of 0.6 mL/min. We used 0.1% formic acid in water and acetonitrile as mobile phase A and B, respectively. The gradient elution started with a gradient from 0% to 100% mobile phase B for 2 min, then 1 min of 100% B, followed by a gradient of 100% to 0% for 0.01 min at the end, at a flow rate of 0.6 ml/min. The mass spectrometer (Quattro Ultima-Pt; Micromass, Waters Ltd., Manchester, UK) was operated in a positive ion multiple reaction monitoring mode. E2110 was monitored using mass transitions of 490.4/459.2. Tamsulosin was used as an internal standard, and was monitored using a mass transition of 409.3/200.0. The lower limit of quantification of E2110 in plasma was 0.5 ng/mL.

In data set [3] the test system is 5-HT1A receptors. Description: [35S]guanosine-5'-O-(3-thio)-triphosphate binding studies. To be noted: stated in introduction, no data shown. Format: biochemical.
A further data set concerns the target T1, CYP3A4 (Homo sapiens, UniProt P08684).
T1 construct: from tissue; host or cells: human liver microsomes
The experiment in a line: Metabolism in human liver microsomes. To be noted: unpublished results. Format: in vitro ADME.

A further data set relates to P-glycoprotein. Description: Brain-to-plasma ratio in Mdr1a/1b-knockout vs wild-type mice. Format: in vivo. To be noted: rodents, BBB drug transporter; data not shown.

Like-named read-outs stand apart in the source and are kept apart here.

As a reminder, the Cmax is the maximum level reached in the sampled fluid or tissue. Usually Tmax stands for the time from dosing to the highest level. As a reminder, the half-life is the time needed for the level to fall by half in the phase considered. A high value points to slow loss.

T1 sequence (P08684 whole entry): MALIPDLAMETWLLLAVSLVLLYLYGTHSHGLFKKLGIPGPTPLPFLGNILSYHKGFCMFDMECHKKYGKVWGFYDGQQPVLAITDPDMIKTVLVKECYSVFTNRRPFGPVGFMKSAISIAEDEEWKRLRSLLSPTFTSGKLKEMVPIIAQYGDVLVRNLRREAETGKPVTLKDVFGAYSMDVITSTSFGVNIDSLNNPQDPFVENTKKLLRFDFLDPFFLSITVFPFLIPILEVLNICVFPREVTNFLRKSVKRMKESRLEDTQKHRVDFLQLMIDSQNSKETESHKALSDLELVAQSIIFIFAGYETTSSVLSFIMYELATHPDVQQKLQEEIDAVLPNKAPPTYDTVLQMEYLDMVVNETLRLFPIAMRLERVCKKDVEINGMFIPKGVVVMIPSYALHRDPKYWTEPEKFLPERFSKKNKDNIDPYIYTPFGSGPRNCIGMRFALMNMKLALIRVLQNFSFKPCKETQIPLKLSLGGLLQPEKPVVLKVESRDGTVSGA

Turning to `CNC(=O)c1ccc2ccn(C3CCN(CCc4c(OC)ccc5c4OC(C)(C)CC5=O)CC3)c2c1.O=C(O)/C=C/C(=O)O` [E2110, 1-{1-[2-(7-Methoxy-2,2-dimethyl-4-oxochroman-8-yl)ethyl]piperidine-4-yl}-N-methyl-1H-indole-6-carboxamide fumarate], the “simulated RO at minimum effective doses during micturition monitoring period” value in the data set on 5-HT1A receptors [1] (0.1 mg/kg (8-OH-DPAT model, 1-2 hours postdose) and 0.3 mg/kg (SCL model, 0.5-1 hour postdose)) is reported as “around 60%”. Also, the “simulated 5-HT1A RO” value in the data set on 5-HT1A receptors [1] (0.1 mg/kg oral, 1-2 hours after dosing, 8-OH-DPAT treatment) is given as 60-70%. Moreover, the “simulated 5-HT1A RO” value with 5-HT1A receptors [1] (0.3 mg/kg oral, 0.5-1 hour after dosing, SCL model) is recorded as 60-80%. Moreover, the “5-HT1A RO required for significant effects on micturition” value with 5-HT1A receptors [1] (inferred from simulated RO and pharmacological tests) is on record as not below 60%. In addition, the “minimum dose exerting overt therapeutic effects on the micturition reflex” value in the data set on micturition interval (SCL model, oral) is 0.3 mg/kg. For the same molecule, the “effect on micturition interval” value in the data set with micturition interval (oral 0.3-1 mg/kg, SCL female SD rats, 0.5-1 hour after administration) was “significantly (p < 0.05) prolonged the micturition intervals”. For the same molecule, the “concentration dependence of binding to plasma proteins” value in data set [2] (at 0.1, 1 µM) is listed as “not dependent on its concentration”. In addition, the “average percentage of protein-unbound E2110 in plasma” value in data set [2] (male SD rat plasma, equilibrium dialysis 24 hr 37°C) amounted to 6%. In addition, in “PK study in rats (oral)” (Female SD), the Cmax is 126 ng/mL, the Tmax stood at 1 h, the half-life was 2.6 h and the AUC(0-t) was found to be 488 ng·h/mL. Also, in “PK study in rats (oral)” (Male SD), the Cmax came out at 48.1 ng/mL, the Tmax was 0.5 h, the half-life was 1.5 h and the AUC(0-t) was found to be 71.8 ng·h/mL. Further, in the data set with 5-HT1A receptors [3], the “functional character at 5-HT1A receptors” value is recorded as “full antagonist”. Moreover, the metabolizing enzyme entry at CYP3A4 is listed as “primarily metabolized by CYP3A4”. Also, the P-glycoprotein substrate status entry in the data set with P-glycoprotein is given as “substrate for the BBB drug transporter P-glycoprotein”.
